Patent publication US20080226750A1, “Methods, Compositions and Articles of Manufacture for Treating Shock and Other Adverse Conditions” (priority 2006, published 2008)
Read-outs that look alike come from different tables or passages of the source.

Tests used:
[1] = system: Drosophila melanogaster; assay: Anoxia tolerance of adult flies after CO2 and/or H2S pretreatment; assay type: in vivo
Experimental: Basic experimental setup. Adult flies were introduced into 35 mL tubes made of glass with a gas-tight rubber stopper (Balsh tubes). This was usually accomplished by anesthetizing flies with CO2, moving groups of flies to vials with food to recover for at least 2 hours, and then transferring them into the Balsh tube. To exchange the gaseous environment in the Balsh tube, two 18 gauge needles were inserted into the rubber stopper, and gas is blown into one of the needles at 100 mL/min. To prevent dessication, gasses were humidified by bubbling through 10 mL of water before passing it through the Balsch tube. The water in the bubbler is equilibrated with the gas for at least 20 minutes before starting the experiment.
For “stopped-flow” experiments, gas exchange proceeded for 60 minutes before sealing the tube. For “low-flow” experiments, gas flow continued throughout the experiment. CO2 was from the house source (100%), and anoxic environments were established by flushing out room air with 100% nitrogen (N2). Care was taken to prevent introduction of room air into the system while switching the atmosphere from CO2 to N2.
After anoxic treatment, oxygen was reintroduced into the Balsh tube by flushing with house air for 20 minutes. The rubber stopper was then removed and a food vial is inverted over the top of the Balsh tubes with Parafilm. […] Viability was scored at least 18 hours after the end of anoxic treatment. After two weeks, if the food vials contained larvae and/or pupae the flies were considered to be fertile.

[2] = system: Drosophila melanogaster embryos and larvae; assay: Anoxia survival of fly embryos and larvae; assay type: in vivo
Experimental: Preliminary experiments with larvae and embryos. […] After exposure to anoxia for 24 h, 7 pupae were formed from a pool of 0-19 h old embryos. However, 20 pupae were observed from a matched pool that was pretreated with CO2 for 10 min.

[3] = system: Drosophila melanogaster; assay: Anoxia tolerance of adult flies after CO2 and/or H2S pretreatment; assay type: in vivo; details: bubbler water not equilibrated with N2, 13 h anoxic exposure
[4] = system: rat hemorrhage model; assay: Controlled lethal hemorrhage (60% blood loss) in rats treated with H2S; assay type: in vivo
Experimental: After surgical implantation of catheters and recovery, blood was removed from conscious animals in 40 minutes. […] Three hours after the end of the bleed, surviving animals were given one shed-blood volume of lactated ringers solution intravenously.

[5] = system: mice in lethal hypoxia; assay: Survival of H2S pre-treated mice in lethal hypoxia; assay type: in vivo, mouse; details: graded reduction of oxygen tension following H2S pre-treatment
Experimental: FIG. 11 Survival of Mice in 5% Oxygen.
Experiments were stopped at 60 minutes and if the animals still alive were returned to their cage.

[6] = system: mice; assay: Metabolic rate (CO2 production, O2 consumption) of mice with H2S and hypoxia; assay type: in vivo, mouse; details: Ta=13° C.
Experimental: FIG. 14 Metabolic Rate of a Mouse in 5% Oxygen. […] Metabolic rate measured by CO2 output. […] At hour 6 the mouse was returned to room air and allowed to recover.
FIG. 15 CO2 Production During Transition to Lethal Hypoxia. […] In addition, the change in CO2 production upon step-wise transition to 5% O2 for 1 hr followed by 4% O2 was measured. The percent change in CO2 production is plotted with standard error indicated.
Relative carbon dioxide production and oxygen consumption of a mouse when pretreated and exposed to 5% O2. […] These experiments were done at Ta=13° C. so they could be compared to our previous studies. Values are the means from three animals and the error bars represent one standard deviation. p-values indicate the significance between the bars with the same symbols.
To determine the rate of consumption of oxygen or the rate of production of carbon dioxide the biological matter is placed into a chamber that is sealed with two openings; for gas import and export. Gas (room air or other gases) is passed into the chamber at a given flow rate and out of the exit port to maintain approximately 1 atmosphere of pressure in the chamber. […]
In addition, the change in CO2 production upon step-wise transition to 5% O2 for 1 hr followed by 4% O2 was measured.

[7] = system: C. elegans; assay: Thermotolerance of C. elegans adapted to H2S; assay type: in vivo
Text: A: Adapted animals survive at high temperature longer than unadapted controls. Adapted animals were exposed to high temperature in H2S as young adults.

[8] = system: C. elegans; assay: Lifespan of C. elegans adapted to H2S; assay type: in vivo
Text: Animals raised in house air were moved to H2S-containing environments at the beginning of the lifespan experiment. The lifespan of these animals is 14.8±0.3 days, which is shorter than controls that remained in house air (mean lifespan 18.2±0.4 days).

[9] = system: C. elegans; assay: Developmental rates, progeny and rate of egg-laying of C. elegans in H2S; assay type: in vivo
Text: The rate of egg-laying is tightly correlated with oocyte production, an energetically expensive activity that is a sensitive readout of metabolic capacity.

[10] = system: rodents and humans; details: 500 ppm; followed by recovery; cited from earlier work
[11] = system: rats; details: cited from earlier work
[12] = system: humans; details: cited from earlier work

## O=C=O [CO2, carbon dioxide]
[1]; 10 min CO2 pretreatment, 17, 22, and 24 h anoxia, low-flow, one experiment
  Survival of adult flies: no survival
[1]; CO2 10 minutes pretreatment (no H2S), 20 h anoxic exposure, low-flow
  Survival of adult flies: 6%
[1]; CO2 pretreatment 30 minutes, 19 h anoxic exposure, stopped-flow
  Survival of adult flies: 54%
[1]; CO2 pretreatment 90 minutes, 19 h anoxic exposure, stopped-flow
  Survival of adult flies: 28%
[1]; CO2 pretreatment, anoxic exposure, then CO2 for 20 minutes immediately following
  Survival of adult flies: no flies survived
[1]; CO2 without subsequent anoxic exposure
  Survival of adult flies: No survival
[1]; flies kept at 4° C. during anoxia
  Effect of CO2 pretreatment in cold treatment experiments: did not have a noticeable difference
[1]; low-flow, 100% CO2 10 min, trend (FIG. 9)
  Survival versus no pretreatment: greater survival
[1]; stopped-flow, 22 h anoxic exposure
  Time of CO2 administration giving the highest fraction of surviving flies: 0.5 to 5 min
[2]; 18.5 h anoxic exposure
  Survival of 0-24 h old embryos: develop to adulthood
[2]; 24.5 h anoxia, only if pretreated
  Movement of larvae upon reoxygenation: resume movement
[2]; CO2 pretreatment 10 min, anoxia 24 h
  Pupae formed from a pool of 0-19 h old embryos: 20 pupae
[3]
  Survival of adult flies: no flies survived

## O=C=O [CO, carbon dioxide]
[1]; treated only with CO2 for 10 min before the anoxic exposure, control experiment
  Flies recovered: 11%

## S [H2S, Hydrogen sulfide]
[4]; 300 ppm H2S in room air from 20 min into the 40 min bleed to end of bleed
  Complete recovery: 85.7%
[4]; 300 ppm H2S, survivors/treated
  Rats that survived hemorrhage and 3 hour shock period and recovered completely: 6/7
[4]; End of bleed
  Blood bicarbonate content ([HCO3^−]): 21 ± 3 mmol/L
[4]; Pre-bleed
  Blood bicarbonate content ([HCO3^−]): 32 ± 3 mmol/L
[1]; 50 ppm H2S in room air prior to anoxia, 18.5 h
  Survival of adult flies: 25%
[1]; 50 ppm H2S in the CO2 pretreatment, removed as anoxia is established, 20 h
  Survival of adult flies: 35%
[1]; CO2 10 min, H2S/CO2 10 min, N2/H2S 10 min, then N2, 15 h anoxic exposure, low-flow
  Survival of adult flies: 50%
[5]
  Lowest oxygen tension survived for an hour: 2.5%
[6]; 150 ppm H2S 20 min pretreatment then long exposure to 5% oxygen
  Drop in metabolic rate: over 50 fold
[6]; H2S alone for the same period of time (80 ppm, six hours)
  Drop in metabolic rate: 10 fold
[7]; adapted animals at high temperature in room air
  Survival at high temperature: 7.3 h
[7]; average, data not shown
  H2S-treated animals alive when all untreated animals had died: 80%
[7]; sir-2.1(ok434) animals grown in H2S, high temperature in H2S (n=20)
  Mean survival time at high temperature: 9.8 ± 0.3 h
[7]; unadapted animals moved to high temperature in 50 ppm H2S
  Mean survival time at high temperature: 2.1 h
[7]; wild-type adapted animals, high temperature in H2S (n=136)
  Mean survival time at high temperature: 65.5 h
[8]; adapted animals in H2S (n=80)
  Mean lifespan: 22.6 ± 1.0 days
[8]; animals grown in H2S versus untreated controls
  Increase of maximum lifespan: 4 days
[8]; raised in house air, moved to H2S at the beginning of the lifespan experiment
  Lifespan: 14.8 ± 0.3 days
[8]; sir-2.1(ok434) animals raised in H2S (n=47)
  Lifespan: 20.0 ± 1.6 days
[9]; adapted (wild-type in 50 ppm H2S), in 2% O2
  Rate of egg-laying: 4.9 ± 1.4 embryos per hour
[9]; adapted (wild-type in 50 ppm H2S), in 2% O2 + H2S
  Rate of egg-laying: 4.7 ± 1.2 embryos per hour
[9]; adapted (wild-type in 50 ppm H2S), in H2S
  Rate of egg-laying: 7.8 ± 2.0 embryos per hour
[9]; adapted: wild-type animals in 50 ppm H2S, median time for 2-cell embryos to hatch at room temperature
  embryogenesis, hours ± SEM (n): 13.3 ± 0.4 (34) hours
[9]; adapted: wild-type animals in 50 ppm H2S, median time for starved first-stage larvae to become gravid adults
  post-embryonic, hours ± SEM (n): 49.3 ± 0.2 (15) hours
[9]; animals raised in low H2S
  Numbers of progeny: 221±35
[9]; clk-1(qm30), in 2% O2 + H2S
  Rate of egg-laying: 2.5 ± 1.0 embryos per hour
[9]; clk-1(qm30), in H2S
  Rate of egg-laying: 3.2 ± 1.1 embryos per hour
[9]; unadapted (wild-type grown in room air), in H2S, ± SD, n = 10
  Rate of egg-laying: 8.3 ± 3.0 embryos per hour
[9]; unadapted, in 2% O2 + H2S
  Rate of egg-laying: 4.5 ± 1.6 embryos per hour
[10]
  Effect of exposure to extreme levels: sudden collapse and unconsciousness
[11]; 20 or 50 ppm H2S, 7 hours per day from gestation through post-natal day 21
  Effect of perinatal exposure: longer dendritic branches with reduced aborization of cerebellar Purkinje cells
[11]; 80 ppm or greater H2S, 3 hours per day on five consecutive days (Struve et al. 2001)
  Effects of repeated gas exposure: Significant reductions in motor activity, water maze performance and body temperature
[11]; moderate levels (Partlo et al., 2001)
  Behavioral toxicity, learning: interferes with the ability of rats to learn a baited radial arm maze task
[11]; moderate levels, immediately after the end of the exposure (Higuchi and Fukamachi)
  Behavioral toxicity, avoidance: inhibits discriminated avoidance responses
[11]; perinatal study, 80 ppm H2S (Dorman et al. 2000)
  Effects in exposed rat pups: no neuropathological effects or altered motor activity, passive avoidance, or acoustic startle response

## [C-]#[O+] [carbon monoxide, Carbon monoxide]
[12]; 50 ppm
  Effect on exposed humans: no symptoms
[12]; 200 ppm, within two-three hours
  Effect on exposed humans: slight headache
[12]; 400 ppm, within one to two hours
  Effect on exposed humans: frontal headache
[12]; 800 ppm, within 45 minutes
  Effect on exposed humans: dizziness, nausea, and/or convulsions
[12]; around 1000 ppm, exposure for more than around 1-2 minutes
  Effect on an organism: expire
